# Experimental data reported in US9416111B2, “Substituted diazine and triazine spleen tyrosine kinease (Syk) inhibitors” (Merck Sharp & Dohme Corp., priority 2012, dated 2016).
# Where two headings read alike, the source gives them in different places.
# What was measured:
# [1] = biological target: T1, recombinant human GST-SYK (Homo sapiens, UniProt P43405); experiment: Homogeneous Time-Resolved Fluorescence (HTRF) assay for the recombinant human Syk enzyme; format: biochemical; details: GST-hSYK 5 pM, ATP 25 μM
# T1 construct: purchased Carna Biosciences 08-176
# Outline: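 HTRF read-out, via Europium anti-phosphotyrosine antibody and SA-APC added with EDTA, measured phosphorylation of a 250 nM biotinylated substrate after 45 min at room temperature with 25 μM ATP and 5 mM magnesium. Enzyme was 5 pM GST-hSYK, preincubated 10 min with compound in Tris pH 7.5 buffer containing DTT.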
# PGD2 = details: dosed intranasally, phase I/II study, allergic rhinitis; cited from earlier work
# [2] = phase II clinical trial, allergic rhinitis; cited from earlier work
# [3] = IC50 rated in classes, read-out: rhSYK Activity
"IC50 [1, 3] [nM]","IC50 ([1]; values in text, read-out: IC50) [nM]",SMILES,clinical safety (PGD2),decrease in PGD2 (PGD2),efficacy versus placebo [2]
< 100,21.6,"Cc1cc(Nc2nccc(C(F)(F)F)n2)cc(-c2cnc(NC3(C(N)=O)CC3)nc2)c1 [Example 4.1, 1-{[5-(3-methyl-5-{[4-(trifluoromethyl)pyrimidin-2-yl]amino}phenyl)pyrimidin-2-yl]amino}cyclopropanecarboxamide]",,,
< 100,2.9,"Cc1cc(Nc2nccc(C(F)F)n2)cc(-c2cnc(C[C@H]3CC[C@H](C(=O)O)CC3)nc2)c1 [Example 5.1, trans-4-{[5-(3-{[4-(difluoromethyl)pyrimidin-2-yl]amino}-5-methylphenyl)pyrimidin-2-yl]methyl}cyclohexanecarboxylic acid]",,,
,,Oc1cccc(Nc2ncc(F)c(Nc3cccc(O)c3)n2)c1 [Example R112],safe across a range of indicators,statistically significant decrease in PGD2,lack of efficacy versus placebo
